# Results taken from patent US12121518B2, “PARP-1 and methods of use thereof” (The Board of Supervisors of Louisiana State University and …, priority 2017, dated 2024).
# Where two headings read alike, the source gives them in different places.
# Experiments:
# MDSCs and T cells = assay: FACS of tumor-infiltrating and spleen immune cells in the MC-38 model; type: in vivo, mouse
# Excerpt: Tumors from the different experimental groups were either processed to generate single-cell suspensions or fixed with formalin. Single cell suspensions were stained with a combination of antibodies to CD45, CD11b, Gr1, Ly6C, and Ly6G. CD11b^+ cell population was gated from the live CD45^+ population. (A) Representative FACS dot plot of the experimental groups. (B) Absolute numbers and percentages of CD11b^+Gr1^+ cell populations in tumors of the different groups. (C) Absolute numbers and percentages of CD11b^+Ly6C^+ and CD11b^+Ly6G^+ populations in tumors of the different groups. (D) Absolute numbers and percentages of CD45^+CD3^+ and CD3^+CD8^+ cell populations in tumors of the different groups. […] (F) Percentages of CD45^+CD3^+ and CD3^+CD8^+ cell populations in spleens of the different groups. […] T cell proliferation was assessed by FACS. p≤0.05; **, p≤0.01; ***, p≤0.001.
# Flow cytometric characterization of tumor infiltrating immune cells using fluorescence-activated cell sorting (FACS) analysis—Following digestion, tumor homogenates were filtered through a […] cell strainer to obtain a single cell suspension. Cell suspensions were then subjected to red blood cell lysis using ACK buffer for 5 minutes before resuspending in complete media. Cells were treated with anti-CD16/CD32 (BD; 2.4G2) for Fc blocking prior to staining with fluorescently-labeled mouse antibodies specific for CD45 (30-F11), CD3e (500A2) (both from eBioscience, San Diego, CA), Ly6C (AL-21), Ly6G (1A8), Gr1 (RB6-8C5), CD11b (M1/70), CD8 (53-6.7), and PD-1 (PA5-J43) (all from BD Biosciences, San Jose, CA). Single cells were gated by first using forward- and side-scatter doublet discrimination. Immune cells were discriminated from this doublet-excluded population using CD45. Myeloid cells were identified using a CD11b^+gate and MDSC subtypes identified by Gr1 selection and then plotted Ly6G/Ly6C. CD3^+ T-cells were gated from CD45^+ cells. CD4^+ and C8^+ T-cells were identified from CD3^+ gate. The detailed gating strategy is described in FIG. 45.
# [1] = tested on: bone marrow-derived MDSCs; conditions: co-culture without drug
# ARG-1, iNOS, COX2 = assay: Immunoblot of ARG-1, iNOS, COX2 and related factors in bone marrow-derived MDSCs; type: cell-based, mouse
# Excerpt: (I) Positive control for PARP-1 trapping.
# Cell fractionation, protein extraction and immunoblot analysis—Tumor tissues or cells were harvested and homogenized in RIPA lysis buffer (Santa Cruz Biotechnology) containing a cocktail of protease and phosphatase inhibitors on ice. Nuclear fractions were isolated as described (35) and the remaining chromatin pellets were washed then suspended in an isotonic buffer followed by sonication. […] Protein expression signals developed by ECL (Pierce, ThermoFisher Scientific) were determined by a G:Box Gel Image Analysis System (Syngene, Cambridge, UK) equipped with the GeneSys image capture software.
# KOPT-K1 cells = assay: KOPT-K1 cell viability (Trypan exclusion assay); type: cell-based; conditions: ultra-low doses, 2.5 days
# Experimental: (§1) Cell viability was assessed 2.5 days after treatment by Trypan exclusion assay. Statistics are not included.
# as §1
# The ultimate goal of this therapy is maximal inhibition of PARP to achieve “synthetic lethality” taking advantage of the inability of BRCA-deficient cancer cells to repair DNA. […] This was tested in three different leukemia cell lines.
# CD3+ T cells = assay: Proliferation of CD3/CD28-stimulated T cells in the absence of MDSCs; conditions: 72 h, no MDSCs
# perforin = assay: Perforin immunoblot in CD3/CD28-stimulated spleen CD3+ T cells; type: cell-based; conditions: 3 days
# Experimental: CD3^+ T cells were isolated from spleen then stimulated with antibodies to CD3 and CD28 for 3 days. Protein extracts were analyzed by immunoblotting with antibodies to perforin (a marker of T cell function) or GAPDH. Note that the 4 nM concentration increased, while the 1 mM decreased, perforin levels.
compound,measurement,setting,value
O=C(c1cc(Cc2n[nH]c(=O)c3ccccc23)ccc1F)N1CCN(C(=O)C2CC2)CC1 [olaparib],CD3+ T cells in tumors (mostly CD8+),MDSCs and T cells; low dose 0.2 mg/kg,increased
same,percentages and numbers of CD11b+/Gr1+ MDSCs in tumors,MDSCs and T cells; low dose 0.2 mg/kg,did not significantly affect
same,numbers and percentages of M-MDSCs in tumors,MDSCs and T cells; moderate dose 5 mg/kg,significantly increased
same,overall CD3+ T cells in spleens (with concomitant decrease in CD8+),MDSCs and T cells; moderate dose 5 mg/kg,substantial decrease
same,suppressive activity of MDSCs on T-cell proliferation,[1]; 4 nM,significantly reduced
same,suppressive activity of MDSCs on T-cell proliferation,[1]; high concentration 5 μM,blocked the function of MDSCs completely
same,suppressive activity of MDSCs on T-cell proliferation,[1]; moderate concentration 0.1 μM,blocked the function of MDSCs completely
same,"increase in ARG-1, iNOS and COX2 during MDSC differentiation","ARG-1, iNOS, COX2; 4 nM, single treatment 24 h after plating","sufficient to prevent the increase in ARG-1, iNOS, and COX2"
same,ARG-1 and iNOS in MDSCs stimulated by co-culture with MC-38 cells,"ARG-1, iNOS, COX2; low and high concentrations (4 nM, 1 μM)",inhibitory effects
same,overall levels of STAT3 (and phosphorylated forms),"ARG-1, iNOS, COX2; low concentration 4 nM",increased the overall levels of STAT3
same,steroid resistance (viability with dexamethasone),KOPT-K1 cells,reverse steroid resistance
same,proliferation of T cells,CD3+ T cells; high concentration 5 μM,significant effects on T-cell proliferation
same,proliferation of T cells,CD3+ T cells; low concentration 4 nM,no effect on proliferation of T cells
same,proliferation of T cells,CD3+ T cells; moderate concentration 0.1 μM,significant effects on T-cell proliferation
same,perforin levels (marker of T cell function),perforin; 4 nM,increased
same,perforin levels (marker of T cell function),perforin,decreased
